Laboratory results from PMC8330742, “New benzothieno[2,3-c]pyridines as non-steroidal CYP17 inhibitors: design, synthesis, anticancer screening, apoptosis induction, and in silico ADME profile studies” (Journal of Enzyme Inhibition and Medicinal Chemistry, 2021).

Columns and labels:
[1] = test system: CCRF-CEM; assay: NCI-60 SRB screen; type: cell-based; settings: Homo sapiens, single dose 10^−5 M, Leukaemia, read-out: Growth inhibition (%)
[2] = test system: HL-60(TB); assay: NCI-60 SRB screen; type: cell-based, human; settings: Homo sapiens; single dose 10^−5 M; HL-60(TB), Leukaemia; read-out: Growth inhibition (%)
[3] = test system: K-562; assay: NCI-60 SRB screen; type: cell-based, human; settings: Homo sapiens, K562; single dose 10^−5 M; K-562, Leukaemia; read-out: Growth inhibition (%)
[4] = test system: MOLT-4; assay: NCI-60 SRB screen; type: cell-based; settings: Homo sapiens; single dose 10^−5 M; MOLT-4, Leukaemia; read-out: Growth inhibition (%)
[5] = test system: A549/ATCC; assay: NCI-60 SRB screen; type: cell-based, human; settings: Homo sapiens, single dose 10^−5 M, Non-small cell lung carcinoma, read-out: Growth inhibition (%)
[6] = test system: EKVX; assay: NCI-60 SRB screen; type: cell-based, human; settings: Homo sapiens, single dose 10^−5 M, Non-small cell lung carcinoma, read-out: Growth inhibition (%)
[7] = test system: HOP-62; assay: NCI-60 SRB screen; type: cell-based, human; settings: Homo sapiens; single dose 10^−5 M; HOP-62, Non-small cell lung carcinoma; read-out: Growth inhibition (%)
[8] = test system: HOP-92; assay: NCI-60 SRB screen; type: cell-based, human; settings: Homo sapiens; single dose 10^−5 M; HOP-92, Non-small cell lung carcinoma; read-out: Growth inhibition (%)
[9] = test system: NCI-H226; assay: NCI-60 SRB screen; type: cell-based, human; settings: Homo sapiens; single dose 10^−5 M; NCI-H226, Non-small cell lung carcinoma; read-out: Growth inhibition (%)
[10] = test system: NCI-H23; assay: NCI-60 SRB screen; type: cell-based, human; settings: Homo sapiens; single dose 10^−5 M; NCI-H23, Non-small cell lung carcinoma; read-out: Growth inhibition (%)
[11] = test system: NCI-H322M; assay: NCI-60 SRB screen; type: cell-based, human; settings: Homo sapiens, single dose 10^−5 M, Non-small cell lung carcinoma, read-out: Growth inhibition (%)
[12] = test system: NCI-H460; assay: NCI-60 SRB screen; type: cell-based, human; settings: Homo sapiens; single dose 10^−5 M; NCI-H460, Non-small cell lung carcinoma; read-out: Growth inhibition (%)
[13] = test system: NCI-H522; assay: NCI-60 SRB screen; type: cell-based, human; settings: Homo sapiens; single dose 10^−5 M; NCI-H522, Non-small cell lung carcinoma; read-out: Growth inhibition (%)
[14] = test system: COLO 205; assay: NCI-60 SRB screen; type: cell-based, human; settings: Homo sapiens; single dose 10^−5 M; COLO 205, Colon cancer; read-out: Growth inhibition (%)
[15] = test system: HCC-2998; assay: NCI-60 SRB screen; type: cell-based, human; settings: Homo sapiens; single dose 10^−5 M; HCC-2998, Colon cancer; read-out: Growth inhibition (%)
[16] = test system: HCT-116; assay: NCI-60 SRB screen; type: cell-based, human; settings: Homo sapiens; single dose 10^−5 M; HCT-116, Colon cancer; read-out: Growth inhibition (%)
[17] = test system: HCT-15; assay: NCI-60 SRB screen; type: cell-based, human; settings: Homo sapiens; single dose 10^−5 M; HCT-15, Colon cancer; read-out: Growth inhibition (%)
[18] = test system: HT-29; assay: NCI-60 SRB screen; type: cell-based; settings: Homo sapiens; single dose 10^−5 M; HT-29, Colon cancer; read-out: Growth inhibition (%)
[19] = test system: KM12; assay: NCI-60 SRB screen; type: cell-based, human; settings: Homo sapiens; single dose 10^−5 M; KM12, Colon cancer; read-out: Growth inhibition (%)
[20] = test system: SW-620; assay: NCI-60 SRB screen; type: cell-based; settings: Homo sapiens; single dose 10^−5 M; SW-620, Colon cancer; read-out: Growth inhibition (%)
[21] = test system: SF-268; assay: NCI-60 SRB screen; type: cell-based, human; settings: Homo sapiens; single dose 10^−5 M; SF-268, CNS cancer; read-out: Growth inhibition (%)
[22] = test system: SF-295; assay: NCI-60 SRB screen; type: cell-based, human; settings: Homo sapiens; single dose 10^−5 M; SF-295, CNS cancer; read-out: Growth inhibition (%)
[23] = test system: LOX IMVI; assay: NCI-60 SRB screen; type: cell-based, human; settings: Homo sapiens, single dose 10^−5 M, Melanoma, read-out: Growth inhibition (%)
[24] = test system: MALME-3M; assay: NCI-60 SRB screen; type: cell-based, human; settings: Homo sapiens, single dose 10^−5 M, Melanoma, read-out: Growth inhibition (%)
[25] = test system: M14; assay: NCI-60 SRB screen; type: cell-based, human; settings: Homo sapiens; single dose 10^−5 M; M14, Melanoma; read-out: Growth inhibition (%)
[26] = test system: SK-MEL-2; assay: NCI-60 SRB screen; type: cell-based, human; settings: Homo sapiens; single dose 10^−5 M; SK-MEL-2, Melanoma; read-out: Growth inhibition (%)
[27] = test system: SK-MEL-28; assay: NCI-60 SRB screen; type: cell-based; settings: Homo sapiens; single dose 10^−5 M; SK-MEL-28, Melanoma; read-out: Growth inhibition (%)
[28] = test system: SK-MEL-5; assay: NCI-60 SRB screen; type: cell-based, human; settings: Homo sapiens; single dose 10^−5 M; SK-MEL-5, Melanoma; read-out: Growth inhibition (%)
[29] = test system: UACC-257; assay: NCI-60 SRB screen; type: cell-based, human; settings: Homo sapiens; single dose 10^−5 M; UACC-257, Melanoma; read-out: Growth inhibition (%)
[30] = test system: UACC-62; assay: NCI-60 SRB screen; type: cell-based, human; settings: Homo sapiens; single dose 10^−5 M; UACC-62, Melanoma; read-out: Growth inhibition (%)
[31] = test system: IGROV1; assay: NCI-60 SRB screen; type: cell-based, human; settings: Homo sapiens, IGROV-1; single dose 10^−5 M; IGROV1, Ovarian cancer; read-out: Growth inhibition (%)
[32] = test system: OVCAR-3; assay: NCI-60 SRB screen; type: cell-based, human; settings: Homo sapiens; single dose 10^−5 M; OVCAR-3, Ovarian cancer; read-out: Growth inhibition (%)
[33] = test system: OVCAR-4; assay: NCI-60 SRB screen; type: cell-based, human; settings: Homo sapiens; single dose 10^−5 M; OVCAR-4, Ovarian cancer; read-out: Growth inhibition (%)
[34] = test system: OVCAR-8; assay: NCI-60 SRB screen; type: cell-based, human; settings: Homo sapiens; single dose 10^−5 M; OVCAR-8, Ovarian cancer; read-out: Growth inhibition (%)
[35] = test system: NCI/ADR-RES; assay: NCI-60 SRB screen; type: cell-based, human; settings: Homo sapiens, single dose 10^−5 M, Ovarian cancer, read-out: Growth inhibition (%)
[36] = test system: SK-OV-3; assay: NCI-60 SRB screen; type: cell-based, human; settings: Homo sapiens; single dose 10^−5 M; SK-OV-3, Ovarian cancer; read-out: Growth inhibition (%)
[37] = test system: 786-0; assay: NCI-60 SRB screen; type: cell-based; settings: Homo sapiens; single dose 10^−5 M; 786-0, Renal cancer; read-out: Growth inhibition (%)
[38] = test system: ACHN; assay: NCI-60 SRB screen; type: cell-based; settings: Homo sapiens, single dose 10^−5 M, Renal cancer, read-out: Growth inhibition (%)
[39] = test system: CAKI-1; assay: NCI-60 SRB screen; type: cell-based, human; settings: Homo sapiens; single dose 10^−5 M; CAKI-1, Renal cancer; read-out: Growth inhibition (%)
[40] = test system: RXF 393; assay: NCI-60 SRB screen; type: cell-based, human; settings: Homo sapiens; single dose 10^−5 M; RXF 393, Renal cancer; read-out: Growth inhibition (%)
[41] = test system: SN12C; assay: NCI-60 SRB screen; type: cell-based, human; settings: Homo sapiens, SN12C; single dose 10^−5 M; SN 12 C, Renal cancer; read-out: Growth inhibition (%)
[42] = test system: TK-10; assay: NCI-60 SRB screen; type: cell-based, human; settings: Homo sapiens; single dose 10^−5 M; TK-10, Renal cancer; read-out: Growth inhibition (%)
[43] = test system: UO-31; assay: NCI-60 SRB screen; type: cell-based, human; settings: Homo sapiens; single dose 10^−5 M; UO-31, Renal cancer; read-out: Growth inhibition (%)
[44] = test system: panel of 60 cancer cell lines; assay: NCI-60 SRB screen, mean or range over the panel; type: cell-based, human; settings: Homo sapiens; mean over the cell lines; single dose 10^−5 M; read-out: Mean growth inhibition (%)

## N#CC1=C(N2CCOCC2)NC(c2cccc([N+](=O)[O-])c2)c2sc3c(F)cccc3c21 (stereo not shown) [Compound 8e, 4-Cyano-3-(4-morpholino)-8-fluoro-1-(3-nitrophenyl)-1,2-dihydro [1]benzothieno[2,3-c]pyridine]
[1]
  inhibition at 10 µM: 6.67%
[2]
  inhibition at 10 µM: -16.5%
[3]
  inhibition at 10 µM: 9.66%
[4]
  inhibition at 10 µM: 5.54%
[5]
  inhibition at 10 µM: 0.1%
[6]
  inhibition at 10 µM: 9.9%
[7]
  inhibition at 10 µM: 18%
[8]
  inhibition at 10 µM: 11.8%
[9]
  inhibition at 10 µM: 10.4%
[10]
  inhibition at 10 µM: 2.35%
[11]
  inhibition at 10 µM: 3.9%
[12]
  inhibition at 10 µM: 2.61%
[13]
  inhibition at 10 µM: 8.18%
[14]
  inhibition at 10 µM: -17.4%
[15]
  inhibition at 10 µM: -8.91%
[16]
  inhibition at 10 µM: 8.86%
[17]
  inhibition at 10 µM: -6.78%
[18]
  inhibition at 10 µM: -5.64%
[19]
  inhibition at 10 µM: 0.52%
[20]
  inhibition at 10 µM: 5.32%
[21]
  inhibition at 10 µM: 7.51%
[22]
  inhibition at 10 µM: -6.46%
[23]
  inhibition at 10 µM: 3.9%
[24]
  inhibition at 10 µM: -7.29%
[25]
  inhibition at 10 µM: -1.97%
[26]
  inhibition at 10 µM: 0.38%
[27]
  inhibition at 10 µM: -10.6%
[28]
  inhibition at 10 µM: -14.6%
[29]
  inhibition at 10 µM: -6.7%
[30]
  inhibition at 10 µM: 6.7%
[31]
  inhibition at 10 µM: 25.4%
[32]
  inhibition at 10 µM: 0.17%
[33]
  inhibition at 10 µM: -2.02%
[34]
  inhibition at 10 µM: 4.28%
[35]
  inhibition at 10 µM: -0.28%
[36]
  inhibition at 10 µM: 7.67%
[37]
  inhibition at 10 µM: -9.79%
[38]
  inhibition at 10 µM: 11.9%
[39]
  inhibition at 10 µM: 27.4%
[40]
  inhibition at 10 µM: -2.93%
[41]
  inhibition at 10 µM: 6.28%
[42]
  inhibition at 10 µM: -59.3%
[43]
  inhibition at 10 µM: 38.4%
[44]
  inhibition at 10 µM: 1.3%

## N#CC1=C(N2CCCCC2)NC(c2cccc([N+](=O)[O-])c2)c2sc3c(F)cccc3c21 (stereo not shown) [Compound 8f, 4-Cyano-3-(piperidin-1-yl)-8-fluoro-1-(3-nitrophenyl)-1,2-dihydro [1]benzothieno[2,3-c]pyridine]
[1]
  inhibition at 10 µM: 3.32%
[2]
  inhibition at 10 µM: -3.35%
[3]
  inhibition at 10 µM: 23.1%
[4]
  inhibition at 10 µM: 5.31%
[5]
  inhibition at 10 µM: -2.65%
[6]
  inhibition at 10 µM: 5.51%
[7]
  inhibition at 10 µM: 10.2%
[8]
  inhibition at 10 µM: 4.9%
[9]
  inhibition at 10 µM: 15.7%
[10]
  inhibition at 10 µM: 4.09%
[11]
  inhibition at 10 µM: -5.64%
[12]
  inhibition at 10 µM: 2.2%
[13]
  inhibition at 10 µM: 9.54%
[14]
  inhibition at 10 µM: -16.7%
[15]
  inhibition at 10 µM: -23.2%
[16]
  inhibition at 10 µM: 4.5%
[17]
  inhibition at 10 µM: -4.78%
[18]
  inhibition at 10 µM: -4.42%
[19]
  inhibition at 10 µM: 5.13%
[20]
  inhibition at 10 µM: 4.11%
[21]
  inhibition at 10 µM: 9.44%
[22]
  inhibition at 10 µM: -9.62%
[23]
  inhibition at 10 µM: 2.61%
[24]
  inhibition at 10 µM: -10.6%
[25]
  inhibition at 10 µM: 0.58%
[26]
  inhibition at 10 µM: 2.71%
[27]
  inhibition at 10 µM: -10.7%
[28]
  inhibition at 10 µM: -14.8%
[29]
  inhibition at 10 µM: -12.7%
[30]
  inhibition at 10 µM: 15.5%
[31]
  inhibition at 10 µM: 14.9%
[32]
  inhibition at 10 µM: 0.09%
[33]
  inhibition at 10 µM: 0.9%
[34]
  inhibition at 10 µM: -0.33%
[35]
  inhibition at 10 µM: -1.61%
[36]
  inhibition at 10 µM: 7.22%
[37]
  inhibition at 10 µM: -12.1%
[38]
  inhibition at 10 µM: 14.3%
[39]
  inhibition at 10 µM: 28.7%
[40]
  inhibition at 10 µM: -6.31%
[41]
  inhibition at 10 µM: 3.7%
[42]
  inhibition at 10 µM: -53.1%
[43]
  inhibition at 10 µM: 33.3%
[44]
  inhibition at 10 µM: 0.008%
